# Laboratory results as given in PubChem BioAssay AID1963850 (Molecular Pharmacology Branch, DTP, NCI, 2024).
# System: 192522-019-R-J2-PDC complex tumor spheroid viability
# Test: Anticancer human tumor 192522-019-R-J2-PDC patient-derived colon adenocarcinoma cell line growth inhibition [POLQ]
# Conditions: for IC50: curve of first compound; for viability, T/C: stronger effect = lower value
# Procedure: Multicellular complex tumor spheroid response to Polymerase (POL) inhibitors (novobiocin, ART-558, RP6685) in combination with a variety of drugs and investigational agents in selected tumor cell lines
# The POL inhibitors (novobiocin, ART-558, and RP6685) were evaluated both individually and in combination with standard of care and investigational anticancer small molecules within a complex spheroid model of solid tumors. . Complex spheroids include a stromal component modeled by human endothelial cells (HUVEC) and fibroblasts modeled by human mesenchymal stem cells (MSCs). The concentration ranges selected for each drug and investigational agent were based upon clinically achievable concentrations if the clinical Cmax of the agent was known.
# Compounds. The drugs and investigational agents: novobiocin (NSC847541), ART-558 (NSC835418), RP-6685 (NSC848927), peposertib (NSC802822), ceralasertib (NSC780249), elimusertib (NSC800525), camonsertib (NSC841442), AZD-1390 (NSC803789), olaparib (NSC753686), talazoparib (NSC767125), rucaparib (NSC756644), sotorasib (NSC818433), MRTX-1133 (NSC836407), SN-38 (NSC673596), topotecan (NSC609699), epotoside (NSC141540), doxorubicin (NSC123127), gemcitabine (NSC613327), 5-fluorouracil (NSC19893), paclitaxel (NSC125973), vemurafenib (NSC761431), MSA-2 (NSC828583), SN-011 (NSC837082), adavosertib (NSC754352), prexasertib (NSC758257), carboplatin (NSC241240) and oxaliplatin (NSC266046), were obtained from the National Cancer Institute (NCI) Developmental Therapeutics Program Chemical Repository (21). The FDA-approved anticancer drug set is available from the Developmental Therapeutics Program at https://dtp.cancer.gov/organization/dscb/obtaining/. […] The stock solutions were prepared in dimethyl sulfoxide (DMSO, Sigma-Aldrich, St. Louis, MO, cat. D2650), except for the platinum compounds which were prepared in saline (Quality Biological, Gaithersburg, MD, cat. 114-055-101), at 800-fold the tested concentration and stored at -70 degrees C prior to their use. All drugs and investigational agents were tested over a range starting from a high concentration at or near the clinical Cmax and decreasing in half-log increments. If the clinical Cmax for an agent had not been determined, the highest concentration tested was 10 microM, except for SN-38, which was tested at a high concentration of 1 microM.
# Cell Culture. All cells were maintained in an incubator at 37 degrees C and 5% CO2 with 95% humidity. The PDC lines were cultured according to standard operating procedures established by the NCI PDMR (https://pdmr.cancer.gov). Table 3 of the manuscript, lists the cell lines along with the number of the three cell types plated to form the mct-spheroids and media for tumor cell growth. After thawing, all PDC lines, except 997537-175-T-J1-PDC and 415267-285-R-J2-PDC, were cultured in Matrigel-coated flasks prepared with a working solution of 1X Ham's F-12 nutrient mix, without supplementation (Thermo Fisher Scientific, cat. 11765054), 100 U/mL penicillin-streptomycin (Thermo Fisher Scientific, cat. 15140122), and 2.5% Matrigel (Corning Inc., Corning, NY, cat. 354248) for the first three passages. The two PDC lines 997537-175-T-J1-PDC and 415267-285-R-J2-PDC were cultured on uncoated flasks. The 857933-349-R-J2-PDC line was cultured in 6C/Colon 1B media containing advanced DMEM/F-12 (Thermo Fisher Scientific, cat. 12634028), 10 mM HEPES (Thermo Fisher Scientific, cat. 15630080), 1X GlutaMAX supplement (Thermo Fisher Scientific, cat. 35050061), 0.1 mg/mL primocin (InvivoGen, San Diego, CA, cat. ant-pm-2), 10% defined fetal bovine serum, heat inactivated (HyClone Laboratories Inc., Logan, UT, cat. SH30070.03HI), 50% L-WRN conditioned media (ATCC, cat. CRL-3276), 1.25 mM N-Acetyl-L-cysteine (Sigma-Aldrich, cat. A9165), 10 mM nicotinamide (Sigma-Aldrich, cat. N0636), 1X B-27 supplement (Thermo Fisher Scientific, cat. 17504044), 1X N-2 supplement (Thermo Fisher Scientific, cat. […]
# 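Further: spheroids exposed to drugs for seven days before reading.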
# 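Wherever viability, T/C is given: 100% = DMSO vehicle control viability in luminescence.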
smiles,measurement,setting,value
COc1cccc2c1C(=O)c1c(O)c3c(c(O)c1C2=O)CC(O)(C(=O)CO)CC3OC1CC(N)C(O)C(C)O1 (configuration not stated) + Cc1cccc(N(C)C(=O)C2C(O)CCN2c2nc(C)cc(C(F)(F)F)c2C#N)c1,IC50,second compound 0.0316 µM,> 10 µM
same,IC50,second compound 0.1 µM,> 10 µM
same,IC50,second compound 0.316 µM,> 10 µM
same,IC50,second compound 1 µM,> 10 µM
same,IC50,second compound 3.16 µM,> 10 µM
same,IC50,second compound 10 µM,> 10 µM
same,"viability, T/C","second compound 0.0316 µM, first compound 0.0316 µM",99.3%
same,"viability, T/C","second compound 0.0316 µM, first compound 0.1 µM",79.8%
same,"viability, T/C","second compound 0.0316 µM, first compound 0.316 µM",73.9%
same,"viability, T/C","second compound 0.0316 µM, first compound 1 µM",86.3%
same,"viability, T/C","second compound 0.0316 µM, first compound 3.16 µM",69.6%
same,"viability, T/C","second compound 0.0316 µM, first compound 10 µM",57.2%
same,"viability, T/C","second compound 0.1 µM, first compound 0.0316 µM",94%
same,"viability, T/C","second compound 0.1 µM, first compound 0.1 µM",85.6%
same,"viability, T/C","second compound 0.1 µM, first compound 0.316 µM",72.5%
same,"viability, T/C","second compound 0.1 µM, first compound 1 µM",83.8%
same,"viability, T/C","second compound 0.1 µM, first compound 3.16 µM",69.1%
same,"viability, T/C","second compound 0.1 µM, first compound 10 µM",67.7%
same,"viability, T/C","second compound 0.316 µM, first compound 0.0316 µM",98.3%
same,"viability, T/C","second compound 0.316 µM, first compound 0.1 µM",91.1%
same,"viability, T/C","second compound 0.316 µM, first compound 0.316 µM",69.4%
same,"viability, T/C","second compound 0.316 µM, first compound 1 µM",77%
same,"viability, T/C","second compound 0.316 µM, first compound 3.16 µM",65.2%
same,"viability, T/C","second compound 0.316 µM, first compound 10 µM",63.3%
same,"viability, T/C","second compound 1 µM, first compound 0.0316 µM",110%
same,"viability, T/C","second compound 1 µM, first compound 0.1 µM",92%
same,"viability, T/C","second compound 1 µM, first compound 0.316 µM",76.5%
same,"viability, T/C","second compound 1 µM, first compound 1 µM",83.7%
same,"viability, T/C","second compound 1 µM, first compound 3.16 µM",75.5%
same,"viability, T/C","second compound 1 µM, first compound 10 µM",61.1%
same,"viability, T/C","second compound 3.16 µM, first compound 0.0316 µM",96.5%
same,"viability, T/C","second compound 3.16 µM, first compound 0.1 µM",99.9%
same,"viability, T/C","second compound 3.16 µM, first compound 0.316 µM",74.2%
same,"viability, T/C","second compound 3.16 µM, first compound 1 µM",69.7%
same,"viability, T/C","second compound 3.16 µM, first compound 3.16 µM",70.9%
same,"viability, T/C","second compound 3.16 µM, first compound 10 µM",60.3%
same,"viability, T/C","second compound 10 µM, first compound 0.0316 µM",102%
same,"viability, T/C","second compound 10 µM, first compound 0.1 µM",79.1%
same,"viability, T/C","second compound 10 µM, first compound 0.316 µM",69.9%
same,"viability, T/C","second compound 10 µM, first compound 1 µM",62.7%
same,"viability, T/C","second compound 10 µM, first compound 3.16 µM",67.3%
same,"viability, T/C","second compound 10 µM, first compound 10 µM",49.8%
